Values joined by “and” are separate entries in the source; they are usually repeats but may differ in a detail not shown here. Identical values can stand only once.
Experiments:
[1] = Pharmacokinetic parameters in rat plasma; assay type: in vivo; details: for clearance in rats in vivo, in words: compared with OTL78
[2] = test system: 22RV1 (PSMA+); test: Drug efficacy validation by in vivo live imaging, three dose groups; set-up: species or system mice; details: for targeting properties: 22RV1 tumor mice, in vivo live imaging; for enrichment in the prostate cancer tumor site: high, medium and low doses (25, 50, 100 nmol/mouse), scans 1-48 h
Description: (§1) “V” denotes the volume-to-mass ratio. […] Mice refer to BALB/c nude mice, 6-8 weeks old, weighing 18-20 g; rats refer to SD rats: 8 weeks old, approximately 250 g.
2. Drug Efficacy Validation Experiment Using In Vivo Live Imaging
Prostate-specific membrane antigen (PSMA) is overexpressed on prostate cancer cells. The test compound is a PSMA-targeting molecule conjugated with a near-infrared region I dye. The test compound can bind to PSMA and “illuminate” cancer cells upon excitation by a near-infrared light source. In this experiment, the in vivo tissue distribution of the test compound in mice is detected using in vivo live imaging.
DGPR1008, 22RV1 (PSMA+), PC3 (PSMA−), 1640 culture medium, FBS, double antibodies, trypsin, Matrigel (BD), vernier caliper, centrifuge, IVIS live imager.
Matrigel was thawed on ice in advance, and the culture medium was pre-cooled on ice. After centrifugation, the cells were resuspended in the pre-cooled culture medium, followed by the addition of HC Matrigel gel in a volume equal to the culture medium. The centrifuge tube containing the cells was placed on ice and transferred to the animal facility. The cells were thoroughly dispersed before inoculation. The right dorsal shoulder area of the mice was disinfected with an alcohol cotton ball, and a single intravenous administration was performed with an inoculation volume of 200 μL per mouse. All operations were performed on ice. When the tumor volume reached 300-400 mm^3, the mice were grouped for administration. Nine mice with well-grown and regularly shaped tumors were selected into the group. The nine mice were randomly divided into three groups: G1 (25 nmol/mouse), G2 (50 nmol/mouse), and G3 (100 nmol/mouse), with three mice in each group. The scanning time: 1, 2, 4, 8, 24, and 48 h.

[3] = test system: 22RV1 (PSMA+); test: In vivo live imaging comparison with the existing product OTL78; set-up: species or system mice; details: for TBR (tumor-to-background ratio), in words: from about 2 h to 72 h; for fluorescence value at the tumor site compared with OTL78: mice, each time point; for TBR compared with OTL78: relative to OTL78; for TBR (mean) / fluorescence value at the tumor site: 10 nmol/mouse; for TBR (mean): 200 μL/mouse
Description: as §1
3. Comparison with the Existing Product OTL78
(§2) The Prostate-specific membrane antigen (PSMA) is overexpressed on prostate cancer cells. The test compound is a PSMA-targeting molecule conjugated with a near-infrared region I dye. The test compound can bind to PSMA and “illuminate” cancer cells upon excitation by a near-infrared light source. In this experiment, the in vivo and ex vivo tissue distribution of the test compound in mice is detected using in vivo live imaging.
DGPR1008, 22RV1 (PSMA+), BALB/c nude mouse, 1640 culture medium, FBS, double antibodies, trypsin, Matrigel (BD), vernier caliper, centrifuge, IVIS live imager.
(§3) Matrigel was thawed on ice in advance, and the culture medium was pre-cooled on ice. After centrifugation, the cells were resuspended in the pre-cooled culture medium, followed by the addition of HC Matrigel gel in a volume equal to the culture medium. The centrifuge tube containing the cells was placed on ice and transferred to the animal facility. The cells were thoroughly dispersed before inoculation. The back of the neck was disinfected with an alcohol cotton ball, and a single intravenous administration was performed with an inoculation volume of 200 μL per mouse. All operations were performed on ice. When the tumor volume reached 300-400 mm^3, the mice were grouped for administration. Six mice with well-grown and regularly shaped tumors were selected into the group. The six mice were randomly divided into two groups: G1 (OTL78 10 nmol/mouse) and G2 (DGPR1008 10 nmol/mouse) with three mice in each group. The scanning time: 1, 2, 4, 8, 24, and 72 h.
(1) Results and Data of In Vivo Live Imaging of Drug Efficacy (Mice were Used as Experimental Subjects in this Part)

[4] = Acute toxicity experiment on rats; details: three dose groups of high, medium and low doses
[5] = biological target: T1, PSMA receptor (Homo sapiens, UniProt Q04609); test: Receptor binding detected by flow cytometry in vitro (competitive binding with DUPA-FITC); details: 22RV1 (PSMA+) cells, competition with 100 nmol/L DUPA-FITC
T1 construct: endogenous in cells; host or cells: 22RV1 (PSMA+); PC3 (PSMA−) as negative control
Description: 1. Receptor Binding was Detected by Flow Cytometry In Vitro:
Prostate-specific membrane antigen (PSMA) is overexpressed on prostate cancer cells. Both DUPA-FITC and DGPR1008 are capable of targeting the PSMA receptor in prostate cancer cells, with the difference being that DUPA-FITC is connected to a visible light dye (Ex=495 nm, Em=520 nm), whereas DGPR1008 is connected to a near-infrared dye (Ex=776 nm, Em=793 nm). Since the majority types of lasers equipped in flow cytometers operate within the visible light spectrum, the binding affinity of DGPR1008 to the receptor can not be directly measured. Therefore, the competitive binding of DGPR1008 with DUPA-FITC to PSMA is employed to indirectly assess the binding affinity of the test compound to the receptor.
DGPR1008, DUPA-FITC, 22RV1 (PSMA+), PC3 (PSMA−), 1640 culture medium, FBS, double antibiotics, trypsin, centrifuge, 4° C. constant temperature incubator, flow cytometer.
Drug preparation: 100 nmol/L DUPA-FITC was prepared using culture medium. The test compound was diluted to nine concentrations (0.00098 μM, 0.002 μM, 0.008 μM, 0.01 μM, 0.03 μM, 0.05 μM, 0.09 μM, 0.1 μM, and 0.125 μM) using culture medium containing 100 nmol/L DUPA-FITC, with three replicate wells for each concentration.
Cell culture: The cells were seeded in T75 culture flasks. After 48 h, cells in the logarithmic growth phase were taken, digested with trypsin for 1-2 min, and the digestion was then terminated by adding fresh culture medium. After cell counting, the cells were transferred into a 96-well plate (1×10^5 cells/well), totaling 27 wells. The culture medium was discarded by centrifugation (800 rpm, 5 min), and the cells were washed twice with PBS and then centrifuged to collect the cell pellet. The prepared culture media with 9 concentrations were added to the cell-containing wells, with three replicates for each concentration. The cells were incubated at 4° C. in the dark for 30 min, and then the culture medium in the wells was discarded. Cells were washed by adding 300 μL of fresh culture medium (twice) and saline (once) to each well, followed by resuspension in 300 μL of saline for flow cytometry detection.

[6] = test system: 22RV1 (PSMA+); test: 2-hour ex vivo tissue distribution: fluorescence of tumor and in situ normal prostate; set-up: species or system mice; details: for discrimination capability (tumor vs normal prostate) compared with OTL78: relative to OTL78; for Prostate fluorescence / Tumor fluorescence / T/P Ratio: 2 h ex vivo, 10 nmol/mouse; for T/P Ratio: tumor to in situ normal prostate
Description: as §2, §3
(2) Results of 2-Hour Ex Vivo Tissue Distribution: Fluorescence Ratio of Tumor to In Situ Normal Prostate: […]

T1 sequence (Q04609 whole entry): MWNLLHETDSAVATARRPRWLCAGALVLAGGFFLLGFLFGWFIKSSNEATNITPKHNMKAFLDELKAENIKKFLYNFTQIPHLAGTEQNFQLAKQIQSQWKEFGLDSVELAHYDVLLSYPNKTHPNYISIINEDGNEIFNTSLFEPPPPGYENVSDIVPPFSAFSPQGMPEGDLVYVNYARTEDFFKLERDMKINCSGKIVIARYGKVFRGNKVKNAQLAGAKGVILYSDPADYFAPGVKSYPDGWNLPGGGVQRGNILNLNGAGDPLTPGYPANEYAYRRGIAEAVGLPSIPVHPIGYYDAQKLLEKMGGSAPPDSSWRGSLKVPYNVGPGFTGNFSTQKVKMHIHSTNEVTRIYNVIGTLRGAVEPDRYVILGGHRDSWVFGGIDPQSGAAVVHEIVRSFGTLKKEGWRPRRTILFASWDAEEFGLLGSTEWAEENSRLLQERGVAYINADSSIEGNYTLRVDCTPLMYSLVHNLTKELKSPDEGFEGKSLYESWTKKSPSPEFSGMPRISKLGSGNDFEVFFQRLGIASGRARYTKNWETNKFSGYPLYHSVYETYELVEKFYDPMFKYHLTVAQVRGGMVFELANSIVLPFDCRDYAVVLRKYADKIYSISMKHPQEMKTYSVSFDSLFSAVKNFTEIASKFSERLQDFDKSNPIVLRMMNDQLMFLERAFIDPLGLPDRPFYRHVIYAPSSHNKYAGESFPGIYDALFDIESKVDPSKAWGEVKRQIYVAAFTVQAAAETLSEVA

Structure (SMILES)	clearance in rats in vivo, in words [1]	targeting properties [2]	enrichment in the prostate cancer tumor site [2]	TBR (tumor-to-background ratio), in words [3]	fluorescence value at the tumor site compared with OTL78 [3]	TBR compared with OTL78 [3]	toxic reactions in acute toxicity experiment [4]	binding affinity to PSMA receptor [5]	discrimination capability (tumor vs normal prostate) compared with OTL78 [6]	further results
CC1(C)C(=CC=C2CCCC(C=CC3=[N+](CCCCS(=O)(=O)[O-])c4ccc(S(=O)(=O)[O-])cc4C3(C)C)=C2Oc2ccc(CC(NC(=O)CCOCCOCCNC(=O)CCC(NC(=O)NC(CCC(=O)[O-])C(=O)[O-])C(=O)[O-])C(=O)[O-])cc2)N(CCCCS(=O)(=O)[O-])c2ccc(S(=O)(=O)[O-])cc21.[K+].[K+].[K+].[K+].[K+].[K+].[K+] (centres unmarked) [Example 12]	cleared more rapidly	good targeting properties	enriched in the prostate cancer tumor site	good TBR	greater fluorescence values at the tumor site than OTL78	higher TBR	no toxic reactions were observed	good affinity	approximately 5 fold	
CC1(C)C(=CC=C2CCCC(C=CC3=[N+](CCCCS(=O)(=O)[O-])c4ccc(S(=O)(=O)[O-])cc4C3(C)C)=C2Oc2ccc(CC(NC(=O)CCOCCOCCNC(=O)CCC(NC(=O)NC(CCC(=O)[O-])C(=O)[O-])C(=O)[O-])C(=O)[O-])cc2)N(CCCCS(=O)(=O)[O-])c2ccc(S(=O)(=O)[O-])cc21.[Li+].[Li+].[Li+].[Li+].[Li+].[Li+].[Li+] (centres unmarked) [Example 13]	cleared more rapidly	good targeting properties	enriched in the prostate cancer tumor site	good TBR	greater fluorescence values at the tumor site than OTL78	higher TBR	no toxic reactions were observed	good affinity	approximately 5 fold	
CC1(C)C(=CC=C2CCCC(C=CC3=[N+](CCCCS(=O)(=O)[O-])c4ccc(S(=O)(=O)[O-])cc4C3(C)C)=C2Oc2ccc(CC(NC(=O)CCOCCCOCCCNC(=O)CCC(NC(=O)NC(CCC(=O)[O-])C(=O)[O-])C(=O)[O-])C(=O)[O-])cc2)N(CCCCS(=O)(=O)[O-])c2ccc(S(=O)(=O)[O-])cc21.[Na+].[Na+].[Na+].[Na+].[Na+].[Na+].[Na+] (centres unmarked) [Example 31]	cleared more rapidly	good targeting properties	enriched in the prostate cancer tumor site	good TBR	greater fluorescence values at the tumor site than OTL78	higher TBR	no toxic reactions were observed	good affinity	approximately 5 fold	
CC1(C)C(=CC=C2CCCC(C=CC3=[N+](CCCCS(=O)(=O)[O-])c4ccc(S(=O)(=O)[O-])cc4C3(C)C)=C2Oc2ccc(CC(NC(=O)CCOCCCOCCCOCCOCCOCCNC(=O)CCC(NC(=O)NC(CCC(=O)[O-])C(=O)[O-])C(=O)[O-])C(=O)[O-])cc2)N(CCCCS(=O)(=O)[O-])c2ccc(S(=O)(=O)[O-])cc21.[Na+].[Na+].[Na+].[Na+].[Na+].[Na+].[Na+] (centres unmarked) [Example 41]	cleared more rapidly	good targeting properties	enriched in the prostate cancer tumor site	good TBR	greater fluorescence values at the tumor site than OTL78	higher TBR	no toxic reactions were observed	good affinity	approximately 5 fold	
CC1(C)C(/C=C/C2=C(Oc3ccc(C[C@H](NC(=O)[C@H](Cc4ccccc4)NC(=O)CCOCCOCCNC(=O)CC[C@H](NC(=O)N[C@@H](CCC(=O)O)C(=O)O)C(=O)O)C(=O)O)cc3)C(=C/C=C3/N(CCCCS(=O)(=O)O)c4ccc(S(=O)(=O)O)cc4C3(C)C)/CCC2)=[N+](CCCCS(=O)(=O)[O-])c2ccc(S(=O)(=O)O)cc21 [OTL78, reference compound]										average AUC0-t ([1]; rats, 2 mg/kg, plasma): 9429 ng·h/mL; average clearance ([1]; rats, 2 mg/kg, plasma): 3.50 mL/min/kg; TBR (mean) ([3]; 1 h): 1.30; TBR (mean) ([3]; 2 h): 1.35; TBR (mean) ([3]; 4 h): 1.38; TBR (mean) ([3]; 8 h): 1.36; TBR (mean) ([3]; 24 h): 1.55; TBR (mean) ([3]; 72 h): 1.65; fluorescence value at the tumor site ([3]; 1 h): 8.75E+09; fluorescence value at the tumor site ([3]; 2 h): 6.58E+09; fluorescence value at the tumor site ([3]; 4 h): 3.27E+09; fluorescence value at the tumor site ([3]; 8 h): 1.71E+09; fluorescence value at the tumor site ([3]; 24 h): 1.41E+09; fluorescence value at the tumor site ([3]; 72 h): 9.69E+08; Prostate fluorescence ([6]; group mean): 3.27E+09 photon/second; Tumor fluorescence ([6]; group mean): 7.26E+09 photon/second; Prostate fluorescence ([6]; individual animal): 4.77E+08 photon/second and 8.11E+09 photon/second and 1.23E+09 photon/second; Tumor fluorescence ([6]; individual animal): 7.07E+09 photon/second and 1.01E+10 photon/second and 4.61E+09 photon/second; T/P Ratio ([6]; group mean): 6.61; T/P Ratio ([6]; individual animal): 14.8 and 1.25 and 3.75

Reference: patent publication US12715844B2, “Compound, preparation method therefor, composition, kit and use thereof” (SIGNDO BIOTECHNOLOGY (SUZHOU) CO., LTD, priority 2023, dated 2026)
